Several values for one entry are separate records, joined by “and”; a condition that tells them apart may be missing. Identical values can stand only once. Entries after “also recorded” stand apart in the source; their conditions may differ.
Columns and labels:
nurse sharks [1] = experiment: Tonic immobility, Bite Assay; format: in vivo, C. cirratum
Description: One bioassay used to observe and measure flight response is the tonic immobility test. Tonic immobility is a state of paralysis that typically occurs when a shark is subject to inversion of its body along the longitudinal axis. This state is called “tonic,” and the shark can remain in this state for up to 15 minutes thereby allowing researchers to observe effects of chemical repellents. The “tonic” state of the shark is first established by releasing seawater in proximity to the “tonic” shark with the same delivery instrument and at the same distance as a “test” repellent compound will be released. Some controls are released with a high flow rate (30 mL/sec) in order to establish that sharks are not awakened by a jet of fluid over their noses. Once behavioral controls are established, a compound or composition that may have a repelling effect is delivered to the shark. […] Using this tonic immobility bioassay researches can quantify the strength of a repellent effect. […]
In Bite Assays, a dose of typically less than 5 mL of 3-methylbutanal was presented directly into the shark's mouth using a pipette. […] Because the delivery was directly into the shark's mouth and responses were generally observed immediately upon delivery, time to response was not recorded.

[2] = tested on: Caribbean reef and blacknose sharks; experiment: Cloud Dispersion Assay on competitively feeding sharks; format: in vivo, C. perezii, C. acronotus; details: 290 microliters
Description: Another bioassay used to observe a flight response in sharks is a cloud dispersion assay on competitively feeding population of sharks. This assay is referred to as a “Cloud Dispersion Assay” or “Cloud Assay.” A pressurized fluid delivery system was designed to deliver repellent into large feeding populations of sharks. The repellent is released as a subsurface cloud, which follows the current. A 1 L plastic container containing the test chemical repellent solution is pressurized to approximately 20 psig with a battery compressor or hand pump. A globe valve is used to hold back the fluid. The fluid is delivered to the end of a long PVC pole using a Teflon tubing. This allows the operator to place the tip of the pole well into a population of feeding sharks. By actuating the small globe valve, a cloud of the chemical solution is released quickly and reliably into the feeding population. Controls are established using FD&C Red 40 dye and seawater, uncolored seawater, and air. These controls establish that sharks are not afraid to approach the delivery pole, nor are sharks deterred from feeding by the jet of control fluid or air.
In each assay disclosed herein, a control of sea water was performed prior to the testing of each test repellent. In the control, sea water was delivered to the shark to be tested in the same delivery manner as the test repellent was delivered. […]

[3] = tested on: sharks (lemon, nurse, blacknose, blacktip pooled); experiment: Tonic immobility, Syringe Assay, summary over species; format: in vivo
Description: (§1) One bioassay used to observe and measure flight response is the tonic immobility test. Tonic immobility is a state of paralysis that typically occurs when a shark is subject to inversion of its body along the longitudinal axis. This state is called “tonic,” and the shark can remain in this state for up to 15 minutes thereby allowing researchers to observe effects of chemical repellents. The “tonic” state of the shark is first established by releasing seawater in proximity to the “tonic” shark with the same delivery instrument and at the same distance as a “test” repellent compound will be released. Some controls are released with a high flow rate (30 mL/sec) in order to establish that sharks are not awakened by a jet of fluid over their noses. Once behavioral controls are established, a compound or composition that may have a repelling effect is delivered to the shark. If the compound or composition engenders a flight response, the shark will awaken from the tonic state and rapidly attempt to flee the delivered repellent. Using this tonic immobility bioassay researches can quantify the strength of a repellent effect.
A second delivery method called the “Syringe Assay” method delivered a dose of 60 mL or more of a test chemical repellent from at least one foot, and up to as many as five feet, from a shark. The distance of delivery was determined based on the strength of the water current in the direction of the shark. Time from delivery of the test substance until response was observed, measured and recorded. The “Syringe” method allows a researcher to observe how a diffusing and diluting cloud of test chemical repellent affects the shark's behavior when the shark encounters the delivered cloud of test substance. The “Syringe” method requires relatively large doses because of the diffusion of the cloud over time and distance. Time from delivery to response is related to the size of the bolus delivered from the syringe, distance of the shark from the syringe and water current.
In the Syringe assay about 60 mL or more of valeraldehyde was delivered from one to as many as five feet from the shark depending on the water current. […] Time from delivery to response was related to the size of the bolus delivered from the syringe, distance of the shark from the syringe and water current.

lemon sharks [4] = experiment: Tonic immobility, Hd Syringe Assay; format: in vivo, N. brevirostris; details: lemon; Hd syringe
Description: as §1
(§2) Lemon, nurse, blacktip and tiger sharks were placed in tonic immobility by inverting the shark's body along its longitudinal axis. […] The “tonic” state of each shark was first established by releasing a control of seawater in proximity to the shark with the same delivery instrument and at the same distance as the chemical repellent would later be delivered. In certain controls, sea water was released with a high flow rate (30 mL/sec) in order to establish that the sharks would not be awakened by a jet of fluid over their noses.
Once behavioral controls were established, the chemical repellent was delivered to the shark using the Hd Syringe Assay method, the Syringe 3/5/10 Assay method, the Bite Assay method or the Micropipette Assay method. […]

nurse sharks [5] = experiment: Tonic immobility, Hd Syringe Assay; format: in vivo, C. cirratum; details: nurse; Hd syringe
Description: as §1
Lemon, nurse, blacktip and tiger sharks were placed in tonic immobility by inverting the shark's body along its longitudinal axis. […]

nurse sharks [6] = experiment: Tonic immobility, Syringe 3/5/10 Assay; format: in vivo, C. cirratum; details: juvenile nurse sharks
blacktip sharks = experiment: Tonic immobility, Syringe 3/5/10 Assay; format: in vivo, C. limbatus
Description: as §1
In the tonic immobility studies disclosed herein, several different methods were employed for delivery of repelling compounds. A first method for delivery of chemical repellent in tonic immobility studies employed a “Syringe 3/5/10 Assay” method. The “Syringe 3/5/10 Assay” method is so named because a test repellent is delivered to a shark from a distance of about “3” inches with a bolus of about “5” mL with a response to the test repellent considered positive if the shark reacts with a change in behavior within less than about “10” seconds from the time of delivery.
The “3/5/10 Syringe Assay” as employed herein delivered a dose of 5-6 mL of a test chemical repellent from a syringe fixed with a needle having a gauge of about 22 from a distance at least 3 inches in front of a shark. Because the test chemical repellent was delivered at a distance from the shark's nares and mouth, a cloud of test chemical repellent was dispersed over the shark within the water column. The dispersed test repellent was subject to water current direction, dispersion and dilution. As a result, a flight response within 10 seconds was considered a positive repellency response. […] Time from delivery to response is related to the size of the bolus delivered from the syringe, distance of the shark from the syringe and water current.
as §2
(§3) Once behavioral controls were established, the chemical repellent was delivered to the shark using the Hd Syringe Assay method, the Syringe 3/5/10 Assay method, the Bite Assay method or the Micropipette Assay method. […] If tonic immobility was terminated, the positive response was denoted as “Y.” If tonic immobility was not terminated but a behavior change within tonic immobility was noted, such as the opening of the mouth or a cough, the response was denoted as an “R” for reduced response. If no behavior change was observed, the negative response was denoted “N.”
In Syringe 3/5/10 Assays, 5-6 mL of 3-methylbutanal was delivered at least 3 inches in front of the shark's mouth. A cloud of the repellent dispersed over the shark within the water column. […] As noted above, because the dispersion of the chemical repellent upon delivery is affected by volume of repellent, water current, and other factors, the time between delivery and response was not correlatable with the potency of the repellent. […]

tiger sharks = experiment: Tonic immobility, Syringe 3/5/10 Assay; format: in vivo, G. cuvieri; details: tiger shark
Description: as §1
In the tonic immobility studies disclosed herein, several different methods were employed for delivery of repelling compounds. A first method for delivery of chemical repellent in tonic immobility studies employed a “Syringe 3/5/10 Assay” method. […]

lemon sharks [7] = experiment: Tonic immobility, Micropipette Assay; format: in vivo, N. brevirostris; details: lemon / juvenile sharks; micropipette
Description: as §1
(§4) A fourth method of delivery was called the “Micropipette Assay” method of delivery. In this method, a very small dose (fraction of a mL) of a test substance was delivered directly into a shark's mouth. […] A response, such as a cough or other notable action of the shark, was usually noted when effective gustatory repellents were delivered directly into a shark's mouth while in tonic immobility.
(§5) The Micropipette Assay method has not proven to be a particularly effective method of assaying for a flight response in elasmobranchs. The Micropipette Assay method is, nevertheless, an excellent method for specifying that a gustatory response has occurred. It is effective for specifying a gustatory response because the micropipette delivery method allows direct delivery of an entire bolus of test substance into the mouth of the shark being tested.
Using a microliter syringe or microliter pipette, a bolus of test chemical can be directed precisely into one of the shark's nares, or its mouth. […] Olfactory repellents will terminate tonic immobility almost immediately when injected into a nare of the shark.
as §2, §3
Further because the Micropipette assays were often done serially on the same set of sharks, second and third doses of the repellent over time would be expected to evoke less of a reaction. Nevertheless, the small doses delivered to the shark in the Micropipette assay provide important data on whether a compound is a gustatory stimulant because the small dose may be delivered directly into the mouth of the shark. This eliminates any olfactory response that might be acting in concert with a gustatory response to terminate tonic immobility.

nurse sharks [8] = experiment: Tonic immobility, Micropipette Assay; format: in vivo, C. cirratum; details: nurse; micropipette; 270 ul
Description: as §1, §4
as §5, with “tested. […]” for “tested.”

lemon sharks [9] = details: Table 24; lemon shark; swab delivery

**Q.** What does the source list for `CC(=O)C(C)=O` [2,3-butanedione]?
**A.** Bite Y (termination of tonic immobility), trials of trials (nurse sharks [1]): terminated and 1/1; Cloud/Cage N (no response) [2]: no response and 1/1; Syringe N (no response), trials of trials [3]: 1/8; Syringe R (behavior response within tonic immobility), trials of trials [3]: behavioral response; Syringe Y (termination of tonic immobility), trials of trials [3]: seven of eight and 7/8

**Q.** What does the source list for `CCC(C=O)CC` [diethylacetaldehyde]?
**A.** Comments (behavior observed) (lemon sharks [4]): cough; Comments (behavior observed) (nurse sharks [5]): cough; Syringe 3/5/10 assays terminating tonic immobility (nurse sharks [6]): six of six; Syringe 3/5/10 assays terminating tonic immobility (blacktip sharks; blacktip sharks): two of four; Syringe 3/5/10 assays with behavioral response (blacktip sharks; blacktip sharks): behavioral response; Syringe 3/5/10 assays with no response (blacktip sharks; blacktip sharks): no response; Comments (behavior observed) (blacktip sharks; blacktip, syringe 3/5/10): cough/tensed; Syringe 3/5/10 assay outcome (tiger sharks): terminated; Comments (behavior observed) (lemon sharks [7]): blinked; also recorded: cough; Response (time from delivery to response) (nurse sharks [8]): 1 s

**Q.** Which “T? (termination of tonic immobility)” value (lemon sharks [9]) does the source give for `O=C(O)CCC(=O)O` [succinic acid] here?
**A.** N

— patent US9456589B2, “Elasmobranch-repelling compounds and methods of use” (priority 2005, dated 2016)
